Tests used:
[1] = target: Citron Rho-interacting kinase (Homo sapiens, UniProt O14578); experiment: Competitive binding affinity to CIT (unknown origin) at 10 uM in presence of ATP relative to control
[2] = target: Cyclin-dependent kinase 7 (Homo sapiens, UniProt P50613); experiment: Competitive binding affinity to CDK7 (unknown origin) at 10 uM in presence of ATP relative to control
[3] = target: T1, Serine/threonine-protein kinase 17A (Homo sapiens) (UniProt Q9UEE5); experiment: Competitive binding affinity to DRAK1 (unknown origin) at 10 uM in presence of ATP relative to control
T1 sequence (whole entry): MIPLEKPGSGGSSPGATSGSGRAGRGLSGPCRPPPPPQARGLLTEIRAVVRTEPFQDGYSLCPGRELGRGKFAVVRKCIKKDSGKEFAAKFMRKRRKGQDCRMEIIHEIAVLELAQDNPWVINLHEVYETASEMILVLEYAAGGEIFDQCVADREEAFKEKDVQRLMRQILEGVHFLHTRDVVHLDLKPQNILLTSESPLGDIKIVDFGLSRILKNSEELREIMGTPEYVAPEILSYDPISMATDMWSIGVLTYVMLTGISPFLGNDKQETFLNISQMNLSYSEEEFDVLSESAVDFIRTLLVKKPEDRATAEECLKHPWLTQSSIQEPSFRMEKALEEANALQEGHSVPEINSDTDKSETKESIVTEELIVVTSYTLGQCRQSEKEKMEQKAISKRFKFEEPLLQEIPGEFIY

[4] = target: T2, Mitogen-activated protein kinase 15 (Homo sapiens) (UniProt Q8TD08); experiment: Competitive binding affinity to ERK8 (unknown origin) at 10 uM in presence of ATP relative to control
T2 sequence (whole entry): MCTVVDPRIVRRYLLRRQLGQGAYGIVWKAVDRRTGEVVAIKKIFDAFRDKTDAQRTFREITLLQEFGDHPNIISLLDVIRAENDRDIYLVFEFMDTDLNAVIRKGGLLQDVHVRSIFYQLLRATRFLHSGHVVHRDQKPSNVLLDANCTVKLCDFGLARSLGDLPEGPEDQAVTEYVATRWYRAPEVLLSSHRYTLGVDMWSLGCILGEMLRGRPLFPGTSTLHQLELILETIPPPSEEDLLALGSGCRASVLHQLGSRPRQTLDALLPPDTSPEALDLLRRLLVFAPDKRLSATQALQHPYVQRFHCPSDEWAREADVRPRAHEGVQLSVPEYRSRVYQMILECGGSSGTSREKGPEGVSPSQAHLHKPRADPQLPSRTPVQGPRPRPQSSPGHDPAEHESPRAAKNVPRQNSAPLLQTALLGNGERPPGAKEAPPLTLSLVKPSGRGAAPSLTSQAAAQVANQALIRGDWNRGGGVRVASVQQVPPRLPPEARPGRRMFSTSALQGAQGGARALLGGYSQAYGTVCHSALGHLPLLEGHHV

[5] = target: Hepatocyte growth factor receptor (Homo sapiens) (UniProt P08581); experiment: Competitive binding affinity to MET (unknown origin) at 10 uM in presence of ATP relative to control
[6] = target: T3, NUAK family SNF1-like kinase 1 (Homo sapiens) (UniProt O60285); experiment: Competitive binding affinity to ARK5 (unknown origin) at 10 uM in presence of ATP relative to control
T3 sequence (whole entry): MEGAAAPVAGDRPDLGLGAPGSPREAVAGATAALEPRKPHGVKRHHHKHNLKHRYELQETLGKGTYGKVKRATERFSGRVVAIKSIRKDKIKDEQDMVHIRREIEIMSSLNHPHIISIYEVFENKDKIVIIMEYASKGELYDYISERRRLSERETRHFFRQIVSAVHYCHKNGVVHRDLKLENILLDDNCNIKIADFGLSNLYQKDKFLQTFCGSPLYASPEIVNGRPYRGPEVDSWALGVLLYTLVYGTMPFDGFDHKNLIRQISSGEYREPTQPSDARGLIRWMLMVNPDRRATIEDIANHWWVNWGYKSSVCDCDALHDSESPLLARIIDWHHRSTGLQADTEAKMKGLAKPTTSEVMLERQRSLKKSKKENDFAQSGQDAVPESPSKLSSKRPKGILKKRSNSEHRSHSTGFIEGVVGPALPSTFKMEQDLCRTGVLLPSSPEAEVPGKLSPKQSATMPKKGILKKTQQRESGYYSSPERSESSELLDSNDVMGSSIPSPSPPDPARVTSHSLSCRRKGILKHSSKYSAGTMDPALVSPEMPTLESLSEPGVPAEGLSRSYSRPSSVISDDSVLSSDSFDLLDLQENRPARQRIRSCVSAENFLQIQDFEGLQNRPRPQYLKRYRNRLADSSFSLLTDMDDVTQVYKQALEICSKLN

[7] = target: Ribosomal protein S6 kinase alpha-6 (Homo sapiens) (UniProt Q9UK32); experiment: Competitive binding affinity to RPS6KA6 kinase domain 2 (unknown origin) at 10 uM in presence of ATP relative to control
[8] = target: Serine/threonine-protein kinase PLK1 (Homo sapiens) (UniProt P53350); experiment: Competitive binding affinity to PLK1 (unknown origin) at 10 uM in presence of ATP relative to control
[9] = target: T4, cAMP-dependent protein kinase catalytic subunit PRKX (Homo sapiens) (UniProt P51817); experiment: Competitive binding affinity to PRKX (unknown origin) at 10 uM in presence of ATP relative to control
T4 sequence (whole entry): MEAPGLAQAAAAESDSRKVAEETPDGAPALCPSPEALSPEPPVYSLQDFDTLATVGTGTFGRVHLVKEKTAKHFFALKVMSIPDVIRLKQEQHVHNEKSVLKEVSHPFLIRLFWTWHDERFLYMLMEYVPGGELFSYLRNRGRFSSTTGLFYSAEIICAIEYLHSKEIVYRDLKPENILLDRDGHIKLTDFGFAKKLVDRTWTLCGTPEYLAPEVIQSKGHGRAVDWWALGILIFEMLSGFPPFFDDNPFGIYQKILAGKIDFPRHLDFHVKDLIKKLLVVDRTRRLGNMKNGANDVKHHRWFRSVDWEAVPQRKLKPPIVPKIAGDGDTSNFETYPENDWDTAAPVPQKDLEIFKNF

[10] = target: Dual specificity tyrosine-phosphorylation-regulated kinase 1B (Homo sapiens) (UniProt Q9Y463); experiment: Competitive binding affinity to DYRK1B (unknown origin) at 10 uM in presence of ATP relative to control
[11] = target: Bone morphogenetic protein receptor type-1A (Homo sapiens) (UniProt P36894); experiment: Competitive binding affinity to BMPR1A (unknown origin) at 10 uM in presence of ATP relative to control
[12] = target: Serine/threonine-protein kinase tousled-like 2 (Homo sapiens) (UniProt Q86UE8); experiment: Competitive binding affinity to TLK2 (unknown origin) at 10 uM in presence of ATP relative to control
[13] = target: Mitogen-activated protein kinase kinase kinase kinase 1 (Homo sapiens) (UniProt Q92918); experiment: Competitive binding affinity to MAP4K1 (unknown origin) at 10 uM in presence of ATP relative to control
Sequence of Mitogen-activated protein kinase kinase kinase kinase 1 (Homo sapiens) (Q92918 whole entry, looked up): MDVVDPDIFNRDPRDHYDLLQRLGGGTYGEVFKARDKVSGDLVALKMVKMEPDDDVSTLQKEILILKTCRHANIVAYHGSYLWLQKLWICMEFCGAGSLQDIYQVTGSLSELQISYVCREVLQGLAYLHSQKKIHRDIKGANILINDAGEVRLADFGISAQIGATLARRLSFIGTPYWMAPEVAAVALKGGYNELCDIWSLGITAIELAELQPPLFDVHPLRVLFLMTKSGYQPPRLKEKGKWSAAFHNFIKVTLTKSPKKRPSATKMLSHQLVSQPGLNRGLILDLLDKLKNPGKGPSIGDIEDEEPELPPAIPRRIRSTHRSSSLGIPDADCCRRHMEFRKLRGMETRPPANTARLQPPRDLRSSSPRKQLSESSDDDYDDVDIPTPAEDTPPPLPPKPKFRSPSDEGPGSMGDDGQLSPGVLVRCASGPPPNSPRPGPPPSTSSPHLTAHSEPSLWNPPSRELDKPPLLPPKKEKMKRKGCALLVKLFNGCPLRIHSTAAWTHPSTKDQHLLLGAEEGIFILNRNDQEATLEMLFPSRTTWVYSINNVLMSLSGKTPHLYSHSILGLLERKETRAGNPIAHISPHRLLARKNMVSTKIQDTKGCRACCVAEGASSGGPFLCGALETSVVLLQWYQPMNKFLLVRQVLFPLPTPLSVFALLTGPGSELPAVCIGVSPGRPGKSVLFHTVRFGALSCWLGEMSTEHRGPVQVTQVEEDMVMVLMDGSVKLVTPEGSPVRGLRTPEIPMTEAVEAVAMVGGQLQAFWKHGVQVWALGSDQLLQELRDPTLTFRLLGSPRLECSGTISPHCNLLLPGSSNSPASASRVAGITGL

Sequence of Citron Rho-interacting kinase (O14578 whole entry): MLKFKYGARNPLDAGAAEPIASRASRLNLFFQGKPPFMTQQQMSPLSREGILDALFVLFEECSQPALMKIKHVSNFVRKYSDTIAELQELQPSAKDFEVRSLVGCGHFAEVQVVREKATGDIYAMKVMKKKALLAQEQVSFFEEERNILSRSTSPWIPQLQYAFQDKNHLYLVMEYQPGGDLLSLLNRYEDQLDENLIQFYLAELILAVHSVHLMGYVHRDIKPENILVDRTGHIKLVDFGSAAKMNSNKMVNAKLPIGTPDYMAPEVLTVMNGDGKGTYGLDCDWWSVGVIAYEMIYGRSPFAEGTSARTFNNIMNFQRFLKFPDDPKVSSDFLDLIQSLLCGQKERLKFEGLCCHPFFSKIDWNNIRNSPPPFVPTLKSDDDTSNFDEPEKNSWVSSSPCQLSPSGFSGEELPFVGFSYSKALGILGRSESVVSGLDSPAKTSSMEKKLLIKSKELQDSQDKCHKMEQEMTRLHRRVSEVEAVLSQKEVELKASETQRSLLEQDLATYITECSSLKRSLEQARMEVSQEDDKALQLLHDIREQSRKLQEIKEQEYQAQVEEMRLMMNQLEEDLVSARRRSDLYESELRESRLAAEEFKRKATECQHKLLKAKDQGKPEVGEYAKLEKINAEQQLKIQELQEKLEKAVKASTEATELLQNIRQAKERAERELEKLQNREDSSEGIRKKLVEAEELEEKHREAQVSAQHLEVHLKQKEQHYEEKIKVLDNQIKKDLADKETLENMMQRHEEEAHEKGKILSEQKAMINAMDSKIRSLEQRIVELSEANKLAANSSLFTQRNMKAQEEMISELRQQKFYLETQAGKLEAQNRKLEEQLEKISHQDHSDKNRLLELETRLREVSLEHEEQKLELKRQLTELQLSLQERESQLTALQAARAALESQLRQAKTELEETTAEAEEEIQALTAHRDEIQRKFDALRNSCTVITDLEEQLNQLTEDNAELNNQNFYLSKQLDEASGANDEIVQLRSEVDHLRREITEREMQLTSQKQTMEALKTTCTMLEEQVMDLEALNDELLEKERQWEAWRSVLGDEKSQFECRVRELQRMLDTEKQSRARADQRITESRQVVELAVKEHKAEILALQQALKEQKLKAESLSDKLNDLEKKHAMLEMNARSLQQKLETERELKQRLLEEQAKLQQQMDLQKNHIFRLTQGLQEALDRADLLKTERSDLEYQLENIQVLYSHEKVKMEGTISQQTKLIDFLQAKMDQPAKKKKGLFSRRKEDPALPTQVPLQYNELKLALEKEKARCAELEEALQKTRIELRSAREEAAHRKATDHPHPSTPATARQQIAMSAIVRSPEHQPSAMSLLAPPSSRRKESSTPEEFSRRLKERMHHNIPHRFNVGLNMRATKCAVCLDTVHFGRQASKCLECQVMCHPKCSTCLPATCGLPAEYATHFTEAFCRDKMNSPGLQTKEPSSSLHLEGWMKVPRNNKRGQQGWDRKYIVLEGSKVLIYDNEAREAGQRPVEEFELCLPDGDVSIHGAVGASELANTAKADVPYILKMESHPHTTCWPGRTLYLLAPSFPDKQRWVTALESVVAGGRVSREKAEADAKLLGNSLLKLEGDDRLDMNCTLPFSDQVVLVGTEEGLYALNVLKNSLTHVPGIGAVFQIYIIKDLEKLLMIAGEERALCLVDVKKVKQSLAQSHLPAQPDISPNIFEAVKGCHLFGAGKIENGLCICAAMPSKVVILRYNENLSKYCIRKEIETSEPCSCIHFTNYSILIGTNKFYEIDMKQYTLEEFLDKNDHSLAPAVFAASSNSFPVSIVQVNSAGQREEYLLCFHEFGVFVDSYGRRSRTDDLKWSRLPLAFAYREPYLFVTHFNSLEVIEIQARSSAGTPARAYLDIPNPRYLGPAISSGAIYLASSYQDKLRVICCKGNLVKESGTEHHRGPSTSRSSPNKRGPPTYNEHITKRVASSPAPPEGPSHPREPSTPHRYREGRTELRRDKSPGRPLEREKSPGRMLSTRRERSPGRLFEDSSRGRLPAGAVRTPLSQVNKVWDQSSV
Sequence of Dual specificity tyrosine-phosphorylation-regulated kinase 1B (Homo sapiens) (Q9Y463 whole entry, looked up): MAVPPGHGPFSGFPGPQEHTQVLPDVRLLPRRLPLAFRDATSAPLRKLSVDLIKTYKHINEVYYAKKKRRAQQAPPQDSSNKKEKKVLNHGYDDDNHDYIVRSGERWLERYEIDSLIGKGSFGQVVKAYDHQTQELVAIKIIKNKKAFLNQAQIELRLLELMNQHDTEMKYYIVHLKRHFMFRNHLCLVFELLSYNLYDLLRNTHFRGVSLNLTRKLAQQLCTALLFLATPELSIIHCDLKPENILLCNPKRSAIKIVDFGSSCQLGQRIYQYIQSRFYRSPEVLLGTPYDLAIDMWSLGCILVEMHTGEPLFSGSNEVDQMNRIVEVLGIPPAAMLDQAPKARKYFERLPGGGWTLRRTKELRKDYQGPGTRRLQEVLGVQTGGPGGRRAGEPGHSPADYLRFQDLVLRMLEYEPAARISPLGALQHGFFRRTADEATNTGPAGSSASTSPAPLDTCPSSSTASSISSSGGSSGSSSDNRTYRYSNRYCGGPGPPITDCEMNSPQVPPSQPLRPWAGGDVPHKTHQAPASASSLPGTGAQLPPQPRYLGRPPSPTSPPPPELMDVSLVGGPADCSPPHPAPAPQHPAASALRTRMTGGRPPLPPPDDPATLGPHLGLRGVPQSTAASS
Sequence of Serine/threonine-protein kinase PLK1 (Homo sapiens) (P53350 whole entry): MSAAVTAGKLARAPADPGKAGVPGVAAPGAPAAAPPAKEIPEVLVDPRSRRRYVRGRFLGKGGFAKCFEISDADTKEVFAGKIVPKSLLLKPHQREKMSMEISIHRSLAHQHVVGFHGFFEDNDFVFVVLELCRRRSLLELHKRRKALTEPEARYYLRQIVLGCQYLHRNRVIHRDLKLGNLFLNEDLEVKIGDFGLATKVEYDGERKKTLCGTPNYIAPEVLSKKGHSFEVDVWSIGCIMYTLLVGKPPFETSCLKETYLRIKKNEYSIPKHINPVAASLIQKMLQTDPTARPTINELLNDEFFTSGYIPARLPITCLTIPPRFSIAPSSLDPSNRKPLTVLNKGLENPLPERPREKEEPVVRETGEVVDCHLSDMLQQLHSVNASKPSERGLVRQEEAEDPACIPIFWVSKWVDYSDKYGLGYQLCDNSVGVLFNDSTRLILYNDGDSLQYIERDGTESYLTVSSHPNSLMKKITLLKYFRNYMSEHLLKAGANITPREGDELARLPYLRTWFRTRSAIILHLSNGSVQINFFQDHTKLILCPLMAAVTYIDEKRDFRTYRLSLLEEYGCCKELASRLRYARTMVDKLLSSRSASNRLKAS
Sequence of Cyclin-dependent kinase 7 (P50613 whole entry): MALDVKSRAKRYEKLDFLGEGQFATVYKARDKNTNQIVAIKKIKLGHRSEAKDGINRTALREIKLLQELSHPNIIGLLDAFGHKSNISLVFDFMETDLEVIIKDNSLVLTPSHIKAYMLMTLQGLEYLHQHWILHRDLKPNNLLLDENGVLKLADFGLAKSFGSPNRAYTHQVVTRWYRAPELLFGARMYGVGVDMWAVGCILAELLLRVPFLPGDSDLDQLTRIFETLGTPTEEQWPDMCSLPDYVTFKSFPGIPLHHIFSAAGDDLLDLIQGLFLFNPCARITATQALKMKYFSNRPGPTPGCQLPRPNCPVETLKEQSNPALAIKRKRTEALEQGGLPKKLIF
Sequence of Bone morphogenetic protein receptor type-1A (Homo sapiens) (P36894 whole entry): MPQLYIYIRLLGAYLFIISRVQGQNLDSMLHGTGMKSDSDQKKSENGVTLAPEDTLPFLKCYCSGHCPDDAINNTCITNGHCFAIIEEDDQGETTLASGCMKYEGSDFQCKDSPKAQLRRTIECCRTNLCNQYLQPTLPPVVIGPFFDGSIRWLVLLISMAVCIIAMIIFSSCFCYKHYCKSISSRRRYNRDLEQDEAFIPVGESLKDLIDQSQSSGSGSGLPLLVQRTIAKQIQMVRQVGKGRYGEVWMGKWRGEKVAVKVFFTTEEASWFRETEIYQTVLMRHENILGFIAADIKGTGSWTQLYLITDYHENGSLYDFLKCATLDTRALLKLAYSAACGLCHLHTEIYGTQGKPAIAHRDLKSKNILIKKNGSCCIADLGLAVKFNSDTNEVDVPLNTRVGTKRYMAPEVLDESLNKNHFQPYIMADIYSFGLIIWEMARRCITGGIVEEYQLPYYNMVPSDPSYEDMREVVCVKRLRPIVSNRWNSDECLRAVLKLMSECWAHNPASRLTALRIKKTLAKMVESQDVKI

Row | SMILES | inhibition [1] | inhibition [2] | inhibition [3] | inhibition [4] | inhibition [5] | inhibition [6] | inhibition [7] | inhibition [8] | inhibition [9] | inhibition [10] | inhibition [11] | inhibition [12] | inhibition [13]
1 | CS(=O)(=O)CCCOc1cccc2c1ccn2-c1ccnc(N[C@H]2CC[C@H](C(=O)N3CCC(O)CC3)CC2)n1 | > 85% | > 85% | > 85% | > 85% | – | – | – | – | – | – | – | – | –
2 | O[C@H]1CC[C@H](Nc2nccc(-n3ccc4ccccc43)n2)CC1 | 79% | 83% | 98% | 91% | 93% | < 50% | 84% | < 50% | < 50% | 100% | < 50% | < 50% | < 50%
3 | O[C@H]1CC[C@H](Nc2nccc(-n3nnc4ccccc43)n2)CC1 | 98% | 92% | 100% | 99% | 97% | 72% | 100% | < 50% | < 50% | 100% | < 50% | < 50% | < 50%
4 | O[C@H]1CC[C@H](Nc2nccc(-n3ncc4ccccc43)n2)CC1 | 75% | 81% | 99% | 97% | 96% | 74% | 100% | < 50% | < 50% | 99% | < 50% | < 50% | < 50%
5 | O[C@H]1CC[C@H](Nc2nccc(-c3n[nH]c4ccccc34)n2)CC1 | – | – | – | – | 98% | – | – | < 50% | < 50% | – | < 50% | 96% | 97%
